Experimental data: ChEMBL document CHEMBL5338801, “Carbohydrate Strengthens the Immunotherapeutic Effect of Small-Molecule PD-L1 Inhibitors” (J Med Chem, 2023)
pIC50: −log10 of the molar value. Active and inactive are the calls of the source. The rule behind the calls is not given here.

What was measured:
RKO [1] = assay: Downregulation of human PD-L1 expressed in RKO cells incubated for 48 hrs; assay type: functional, cell-based
[2] = target: T1, Programmed cell death protein 1/Programmed cell death 1 ligand 1 (Homo sapiens, UniProt Q9NZQ7); assay: Inhibition of PD-1/PD-L1 (unknown origin) interaction incubated for 15 mins by HTRF assay; assay type: protein-complex assay
T1 sequence (Q15116 whole entry): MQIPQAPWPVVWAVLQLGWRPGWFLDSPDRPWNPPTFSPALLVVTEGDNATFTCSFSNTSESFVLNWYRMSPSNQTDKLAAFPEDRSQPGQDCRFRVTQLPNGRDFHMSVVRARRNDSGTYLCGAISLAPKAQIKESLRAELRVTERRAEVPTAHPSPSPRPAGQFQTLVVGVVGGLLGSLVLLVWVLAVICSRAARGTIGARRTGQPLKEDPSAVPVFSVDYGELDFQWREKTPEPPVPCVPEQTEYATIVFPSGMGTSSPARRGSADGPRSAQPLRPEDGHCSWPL
T1 sequence (Q9NZQ7 whole entry): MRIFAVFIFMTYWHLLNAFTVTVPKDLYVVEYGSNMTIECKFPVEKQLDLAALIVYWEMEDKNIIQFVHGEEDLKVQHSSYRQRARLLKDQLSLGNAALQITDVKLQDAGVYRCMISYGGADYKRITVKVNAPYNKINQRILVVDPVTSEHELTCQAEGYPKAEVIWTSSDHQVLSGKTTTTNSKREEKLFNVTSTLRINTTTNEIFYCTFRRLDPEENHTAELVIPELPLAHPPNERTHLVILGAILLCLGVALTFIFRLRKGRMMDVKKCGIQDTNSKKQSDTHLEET

[3] = Partition coefficient, logD of compound in 1-octanol and phosphate buffer at pH 7.4 incubated for 1 hr under shaking condition by HPLC analysis; assay type: physicochemical; settings: 1-octanol/phosphate buffer, pH 7.4
[4] = Half life in CD-1 mouse at 5 mg/kg, iv measured upto 24 hrs by UPLC analysis; assay type: ADME, organism-based; settings: in vivo
[5] = Half life in CD-1 mouse at 10 mg/kg, ig measured upto 24 hrs by UPLC analysis; assay type: ADME, organism-based; settings: in vivo, po
[6] = Tmax in CD-1 mouse at 10 mg/kg, ig measured upto 24 hrs by UPLC analysis; assay type: ADME, organism-based; settings: in vivo, po
[7] = Cmax in CD-1 mouse at 10 mg/kg, ig measured upto 24 hrs by UPLC analysis; assay type: ADME, organism-based; set-up: dose 10 mg/kg, time < 24 hrs, route ig; settings: in vivo, po
[8] = AUClast in CD-1 mouse at 5 mg/kg, iv measured upto 24 hrs by UPLC analysis; assay type: ADME, organism-based; set-up: dose 5 mg/kg, time < 24 hrs, route iv; settings: in vivo
[9] = AUClast in CD-1 mouse at 10 mg/kg, ig measured upto 24 hrs by UPLC analysis; assay type: ADME, organism-based; set-up: dose 10 mg/kg, time < 24 hrs, route ig; settings: in vivo, po
[10] = Observed AUC infinity in CD-1 mouse at 5 mg/kg, iv measured upto 24 hrs by UPLC analysis; assay type: ADME, organism-based; set-up: dose 5 mg/kg, time < 24 hrs, route iv; settings: in vivo
[11] = Observed clearance in CD-1 mouse at 5 mg/kg, iv measured upto 24 hrs by UPLC analysis; assay type: ADME, organism-based; settings: in vivo
[12] = Observed MRT infinity in CD-1 mouse at 5 mg/kg, iv measured upto 24 hrs by UPLC analysis; assay type: ADME, organism-based; settings: in vivo
[13] = Observed MRT infinity in CD-1 mouse at 10 mg/kg, ig measured upto 24 hrs by UPLC analysis; assay type: ADME, organism-based; settings: in vivo, po
[14] = Volume of distribution at steady state in CD-1 mouse at 5 mg/kg, iv measured upto 24 hrs by UPLC analysis; assay type: ADME, organism-based; settings: in vivo, read-out: Vdss
[15] = Upregulation of IFN-gamma secretion in human CD4+ve Th cells cocultured with DC cells incubated for 120 hrs by ELISA; assay type: functional
[16] = target: Programmed cell death 1 ligand 1 (Homo sapiens) (UniProt Q9NZQ7); assay: Induction of human PD-L1 degradation expressed in MC38 cells at 1 to 10 uM cocultured for 72 hrs by Western blotting analysis; assay type: cell-based; settings: dose 1-10 µM
Sequence of Programmed cell death 1 ligand 1 (Homo sapiens) (Q9NZQ7 whole entry): as above

[17] = target: Programmed cell death 1 ligand 1 (Homo sapiens) (UniProt Q9NZQ7); assay: Inhibition of human PD-L1 overexpressed in RKO cells assessed as reduction in membrane activity cocultured for 48 hrs by flow cytometry analysis; assay type: cell-based
[18] = target: T1, Programmed cell death protein 1/Programmed cell death 1 ligand 1; assay: Inhibition of human PD-1/PD-L1 interaction overexpressed in human HEK293T cells by flow cytometry analysis; assay type: cell-based
Jurkat = assay: Cytotoxicity against human Jurkat T cells assessed as cell growth inhibition upto 30 uM incubated for 48 hrs by MTT assay; assay type: toxicity, cell-based
B16-F10 [19] = assay: Antitumor activity against mouse B16-F10 cells implanted in C57BL/6 mouse assessed as tumor growth inhibition at 100 mg/kg, po qd for 6 days and measured once a day for 7 days relative to control; assay type: functional; settings: B16-F10, 168 h, time 7 day, read-out: TGI
B16-F10 [20] = assay: Antitumor activity against mouse B16-F10 cells implanted in C57BL/6 mouse assessed as tumor growth inhibition at 25 mg/kg, ip qd for 6 days and measured once a day for 7 days relative to control; assay type: functional; settings: B16-F10, 168 h, time 7 day, read-out: TGI
B16-F10 [21] = assay: Antitumor activity against mouse B16-F10 cells implanted in C57BL/6 mouse assessed as tumor growth inhibition at 5 mg/kg, it qd for 6 days and measured once a day for 7 days relative to control; assay type: functional; settings: B16-F10, 168 h, time 7 day, read-out: TGI
[22] = Toxicity in C57BL/6 mouse implanted with mouse B16-F10 cells assessed as weight loss at 100 mg/kg, po qd administered for 6 days measured after 7 days relative to control; assay type: organism-based; settings: in vivo, 168 h, time 7 day
[23] = Toxicity in C57BL/6 mouse implanted with mouse B16-F10 cells assessed as weight loss at 25 mg/kg, ip qd administered for 6 days measured after 7 days relative to control; assay type: organism-based; settings: in vivo, 168 h, time 7 day
[24] = Toxicity in C57BL/6 mouse implanted with mouse B16-F10 cells assessed as weight loss at 5 mg/kg, it qd administered for 6 days measured after 7 days relative to control; assay type: organism-based; settings: in vivo, other, 168 h, time 7 day
CT26 [25] = assay: Antitumor activity against mouse CT26 cells implanted in Balb/c mouse assessed as tumor growth inhibition at 25 mg/kg, ip qd administered for 10 days measured every 2 days for 12 days relative to control; assay type: functional; settings: CT26, 288 h, time 12 day, read-out: TGI
[26] = Toxicity in BALB/c mouse implanted with mouse CT26 cells assessed as weight loss at 25 mg/kg, ip qd administered for 10 days measured every 2 days for 12 days relative to control; assay type: organism-based; settings: in vivo, 288 h, time 12 day
CT26 [27] = assay: Antitumor activity against mouse CT26 cells implanted Balb/c mouse assessed as increase CD4+ cell count at 25 mg/kg, ip qd administered for 10 days measured every 2 days for 12 days (reference value: 13.74 +/- 0.51%); assay type: functional; settings: time 12 day
CT26 [28] = assay: Antitumor activity against mouse CT26 cells xenografted Balb/c mouse assessed as increase CD3+ CD8+ T cell count at 25 mg/kg, ip qd administered for 10 days measured every 2 days for 12 days (reference value: 5.77 +/- 0.32%); assay type: functional; settings: time 12 day
CT26 [29] = assay: Antitumor activity against mouse CT26 cells xenografted Balb/c mouse assessed as granzyme B+ CD8+ T cell count at 25 mg/kg, ip qd administered for 10 days measured every 2 days for 12 days (reference value: 4.31 +/- 2.35%); assay type: functional; settings: time 12 day
CT26 [30] = assay: Downregulation of mouse PD-L1 expressed in CT26 cells incubated for 48 hrs; assay type: functional, cell-based
CT26 [31] = assay: Downregulation of BET1 homologue in Balb/c mouse tumor implanted with mouse CT26 cells by LC/MS analysis; assay type: functional, cell-based
CT26 [32] = assay: Downregulation of immediate early response 3-interacting protein 1 in Balb/c mouse tumor implanted with mouse CT26 cells tumor by LC/MS analysis; assay type: functional, cell-based
CT26 [33] = assay: Downregulation of STING ER exit protein in Balb/c mouse tumor implanted with mouse CT26 cells by LC/MS analysis; assay type: functional, cell-based
CT26 [34] = assay: Downregulation of mitogen-activated protein kinase 15 in mouse CT26 cells implanted in Balb/c mouse tumor by LC/MS analysis; assay type: functional, cell-based
RKO [35] = assay: Cytotoxicity against human RKO cells over expressing human PD-L1 at 50 uM; assay type: toxicity, cell-based
[36] = target: T1, Programmed cell death protein 1/Programmed cell death 1 ligand 1; assay: Inhibition of PD-1/His-tagged PD-L1 (unknown origin) protein-protein interaction incubated for 90 mins by AlphaLISA; assay type: protein-complex assay
[37] = Half life in CD-1 mouse at 5 mg/kg, ip measured upto 24 hrs by UPLC analysis; assay type: ADME, organism-based; settings: in vivo
[38] = Tmax in CD-1 mouse at 5 mg/kg, ip measured upto 24 hrs by UPLC analysis; assay type: ADME, organism-based; settings: in vivo
[39] = Tmax in CD-1 mouse at 5 mg/kg, iv measured upto 24 hrs by UPLC analysis; assay type: ADME, organism-based; settings: in vivo
[40] = Cmax in CD-1 mouse at 5 mg/kg, ip measured upto 24 hrs by UPLC analysis; assay type: ADME, organism-based; set-up: dose 5 mg/kg, time < 24 hrs, route ip; settings: in vivo
[41] = Cmax in CD-1 mouse at 5 mg/kg, iv measured upto 24 hrs by UPLC analysis; assay type: ADME, organism-based; set-up: dose 5 mg/kg, time < 24 hrs, route iv; settings: in vivo
[42] = AUClast in CD-1 mouse at 5 mg/kg, ip measured upto 24 hrs by UPLC analysis; assay type: ADME, organism-based; set-up: dose 5 mg/kg, time < 24 hrs, route ip; settings: in vivo
[43] = Observed AUC infinity in CD-1 mouse at 5 mg/kg, ip measured upto 24 hrs by UPLC analysis; assay type: ADME, organism-based; set-up: dose 5 mg/kg, time < 24 hrs, route ip; settings: in vivo
[44] = Observed MRT infinity in CD-1 mouse at 5 mg/kg, ip measured upto 24 hrs by UPLC analysis; assay type: ADME, organism-based; settings: in vivo

SMILES	logD at 1 h [3]	half-life [4]	AUC(0-t) at 24 h [8]	MRT inf [12]	fold change (FC) [15]	pIC50 [18]	Activity (Jurkat)	inhibition in vivo at 100 mg/kg (B16-F10 [19])	inhibition in vivo at 25 mg/kg (B16-F10 [20])	inhibition in vivo at 5 mg/kg (B16-F10 [21])	Activity [22]	Activity [23]	Activity [24]	inhibition in vivo at 25 mg/kg (CT26 [25])	Activity [26]	Activity (CT26 [27])	Activity (CT26 [28])	Activity (CT26 [29])	also measured
COc1nc(OCc2cccc(-c3ccccc3)c2C)ccc1CNCCO[C@@H]1O[C@H](CO)[C@@H](O)[C@H](O)[C@H]1NC(C)=O	2.09	6.36 h	2160 ng·h/mL	3.58 h	2.57	7.31	Non-Toxic	41.1%	41.1%	41.1%	Non-Toxic	Non-Toxic	Non-Toxic	77.3%	Non-Toxic	20.53%	11.47%	5.06%	Activity (RKO [1]): Active; pIC50 [2]: 7.53; half-life [5]: 7.02 h; Tmax [6]: 0.5 h; Cmax [7]: 31.7 ng/mL; AUC(0-t) at 24 h [9]: 337 ng·h/mL; AUC(0-inf) ([10]; CD-1, mouse): 2230 ng·h/mL; clearance [11]: 38.6 mL/min/kg; MRT inf [13]: 10.2 h; Vd [14]: 6.88 L/kg; Activity [16]: Active; inhibition [17]: Active; Activity (CT26 [30]): Active; Activity (CT26 [31]): Active; Activity (CT26 [32]): Active; Activity (CT26 [33]): Active; Activity (CT26 [34]): Active; Activity (RKO [35]): Non-Toxic
Cc1c(COc2cc(OCc3cncc(C#N)c3)c(CN(CCCN(C)C)CCS(=O)(=O)O)cc2Cl)cccc1-c1ccc2c(c1)OCCO2																			pIC50 [36]: 7.63
COc1cc(OCc2cccc(-c3ccccc3)c2C)cc(OC)c1CNCCO[C@H]1O[C@H](CO)[C@@H](O)[C@H](O)[C@@H]1O	1.78	3.78 h	1090 ng·h/mL	1.5 h	6.72	7.22	Non-Toxic	41.1%	41.1%	41.1%	Non-Toxic	Non-Toxic	Non-Toxic	67.2%	Non-Toxic	18.4%	8.67%	7.19%	half-life [37]: 5.83 h; Tmax [38]: 0.58 h; Tmax [39]: 0.58 h; Cmax [40]: 1630 ng/mL; Cmax [41]: 928 ng/mL; AUC(0-t) at 24 h [42]: 2920 ng·h/mL; AUC(0-inf) [43]: 2990 ng·h/mL; AUC ([10]; mouse, 24 h): 1110 ng·h/mL; MRT inf [44]: 1.9 h
